# Assay results published in patent publication US20230301981A1, “TLR7/8 ANTAGONISTS AND USES THEREOF” (Merck Patent GmbH, priority 2020, published 2023).
# “And” between values parts separate entries of the source, which are not always exact repeats. Equal values may be shown once. Read-outs that look alike come from different tables or passages of the source.
# Target: T1, TLR9 (Mus musculus, UniProt Q9EQU3)
# T1 construct: from tissue; host or cells: primary splenocytes from C57BL-6/N mouse spleen
# T1 sequence (Q9EQU3 26-1032): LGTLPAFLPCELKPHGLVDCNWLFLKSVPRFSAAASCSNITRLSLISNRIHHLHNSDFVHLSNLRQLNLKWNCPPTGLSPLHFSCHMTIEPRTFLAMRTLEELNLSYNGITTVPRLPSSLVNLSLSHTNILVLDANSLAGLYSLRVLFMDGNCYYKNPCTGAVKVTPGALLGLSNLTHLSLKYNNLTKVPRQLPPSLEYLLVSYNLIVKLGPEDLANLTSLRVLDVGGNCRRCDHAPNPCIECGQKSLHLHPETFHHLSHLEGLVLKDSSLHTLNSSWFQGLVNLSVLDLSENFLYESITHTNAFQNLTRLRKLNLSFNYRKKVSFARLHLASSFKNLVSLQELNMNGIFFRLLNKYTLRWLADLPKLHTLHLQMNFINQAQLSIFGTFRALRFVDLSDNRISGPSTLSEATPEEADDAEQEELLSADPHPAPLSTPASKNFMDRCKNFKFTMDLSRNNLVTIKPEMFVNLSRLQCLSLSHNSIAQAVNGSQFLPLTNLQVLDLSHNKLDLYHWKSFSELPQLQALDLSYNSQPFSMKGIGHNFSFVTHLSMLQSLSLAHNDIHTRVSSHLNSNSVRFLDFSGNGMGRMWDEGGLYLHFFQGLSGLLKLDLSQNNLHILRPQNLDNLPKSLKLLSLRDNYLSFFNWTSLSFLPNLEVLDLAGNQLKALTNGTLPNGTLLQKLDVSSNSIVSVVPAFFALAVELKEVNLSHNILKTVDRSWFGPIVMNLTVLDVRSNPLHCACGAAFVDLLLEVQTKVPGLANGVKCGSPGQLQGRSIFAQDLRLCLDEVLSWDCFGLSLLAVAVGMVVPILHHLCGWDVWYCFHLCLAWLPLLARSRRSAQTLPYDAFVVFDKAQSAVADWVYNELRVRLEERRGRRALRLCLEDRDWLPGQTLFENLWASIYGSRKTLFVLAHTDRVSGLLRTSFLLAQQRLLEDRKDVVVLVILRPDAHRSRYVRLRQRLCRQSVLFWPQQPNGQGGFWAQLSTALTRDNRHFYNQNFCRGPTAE
# Test: Mouse spleenocytes cell assay with CpG stimulation (IL6/TNFa ELISA)
# Assay type: cell-based
# Conditions: CpG 5 µM
# Description: Mouse spleen from healthy, female C57BL-6/N mice (n=2) were taken out in 50 mL tubes with B-Cell medium and the experiment started directly. The spleen was grinded through a cell strainer by using the punch of a syringe into a 50 mL Falcon tube. Cell strainer and punch were flushed with appropriate amount of washing buffer to avoid cellloss. Then the spleenocytes were centrifuged for 10 min at 552 xg (1600 rpm), 4° C. The erythrocytes within the cell pellet were lysed by resuspending pellet in 1 ml ACK-lysing buffer (4° C.) and incubate for 1 minute at RT. Lysis was stopped by filling up to 50 ml with washing buffer and centrifuged for 10 min at 552 xg (1600 rpm), 4° C. Cells were washed in B-cell Media (IMDM + 25 mM HEPES + 10%FCS + pen/strep + NEAA 10 nM + Sodium Pyrovat 100 nM, β-Mercaptoethanol 50 nM), counted and seeded in a density of 148500 cells per well in a 96 well MTP (135µl of 1,1×106c/ml). The cells were pre-treated with antimalarials (15 µL, in different concentrations according to dose-response curve ranging from 100 pM-50 µM)) for 30 min, at 37° C., 5% CO2, followed by TLR⅞ stimulation with R848 (15 µl, final concentration of 1 µM) or a TLR9 stimulation with CpG (15 µl, final concentration of 5 µM) and incubated at 37° C., 5% CO2 for 18 - 24 hours.
# Supernatants were collected and transferred into a 96 well round bottom MTP and stored at -20° C. until ELISA formouse IL6 and mouse TNFa were performed. Plates were read directly after assay on an Envision Multiplate reader. Results were analyzed with GraphPadPrism V8.0. Plot the calculated amount of produced IL6 or TNFa in pg/ml on y-axis and the concentration of each MSC concentration at half logarhythmic scaling on the x-axis to achieve a dose-response curve. Determine IC50 values using Graph Pad Prism analysis software (Transform Y values using “X=Log(X) and log inhibitor vs. response; Variable slope (four parameters).
# [1] = IL6 readout, read-out: IC50 TLR9 (IL6 readout) mouse spleenocytes (n=2)
# [2] = TNF readout, read-out: IC50 TLR9 (TNF readout) mouse spleenocytes (n=2)
compound,measurement,setting,value
"COc1ccc2nc3cc(Cl)ccc3c(Nc3cc(CN4CCCC4)c(O)c(CN4CCCC4)c3)c2n1 [Compound 1, Pyronaridine]",IC50,[1],14 nM and 35 nM
same,IC50,[2],21 nM and 140 nM
"CCN(CCO)CCCC(C)Nc1ccnc2cc(Cl)ccc12 (centres unmarked) [HYDROXY-CHLOROQUINE HCQ, hydroxychloroquine]",IC50,[1],15400 nM and 1700 nM
same,IC50 TLR9 (TNF readout) mouse spleenocytes (n=2),TNF readout,no suppr
same,IC50,[2],11500 nM
